“And” between values parts separate entries of the source, which are not always exact repeats. Identical values can stand only once. Like-named read-outs stand apart in the source and are kept apart here.
Assays:
C-6 = system: C-6
Protocol: (§1) Cancer cell lines HCC 1419, MCF-7, MDA-MB-468, SKBR3, PC3, HT1299, Saos-2, C-6, AsPc, MDA-MB-231, RKO, HeLa and TT, and normal cell lines HME 50 HT, BJ and CCD-1074sk were tested for changes in metabolism (XTT assay) and cell death (cell counts).
(§2) Cells were plated into 48-well Corning CellBind™ plates at densities of 20,000 cells for normal cells and 10,000˜20,000 cells for cancer cells. 24 to 48 h after plating, cells were treated with the composition according to the invention at concentrations of 4.5e-2M. The first time point treated with the composition of the invention is 0 h. At 3 days after the first treatment with the composition of the invention, medium was changed and the composition of the invention at the same concentrations were added to the cultured cells.
(§3) The XTT assay is an accepted analysis technique for viability and cytotoxicity of anticancer drugs or other pharmaceutical compositions. Cells were seeded in a 96-well tissue culture plate at a density of 10,000 cells for normal cells and 5,000 cells for cancer cells. After incubation period, the formazan dye formed was quantitated using an ELISA reader. The optimal wavelength used in experiments was 500 nm, and it was measured at 0 h, 12 h, 24 h, 48 h, 4 d and 7 d, respectively. The obtained values were generated using the software SoftMax Pro 4.8.
(§4) The cell viability was calculated according to the manufacturer's instructions as follows (the term “blank” means XTT in medium only):
(§5) Cellular cytotoxicity was calculated according to the manufacturer's instructions as follows: […]

SKBR3 = details: for The absorbance, Mean value / The absorbance, group - Blank / The absorbance: SKBR3, XTT 500 nm; for The absorbance: single wells
Protocol: as §1, §2, §3, §4, §5

HT 1299 = details: for The cytotoxicity / The viability: 220 nM; for The absorbance / The absorbance, Mean value / The absorbance, group - Blank: HT 1299
Protocol: as §1, §2, §3, §4, §5

[1] = XTT 500 nm, 2nd week (recovery), 0 h
[2] = XTT 500 nm, 2nd week (recovery), 24 h
[3] = XTT 500 nm, 2nd week (recovery), 48 h
[4] = XTT 500 nm, 2nd week (recovery), 4 d

CC(=O)O[C@H]1C(=O)[C@@]2(C)[C@H]([C@H](OC(=O)c3ccccc3)[C@]3(O)C[C@H](OC(=O)[C@H](O)[C@@H](NC(=O)c4ccccc4)c4ccccc4)C(C)=C1C3(C)C)[C@]1(OC(C)=O)CO[C@@H]1C[C@@H]2O [Taxol]
The absorbance (C-6; C-6, 1st week (LC50), 0 h): 2.6477 and 2.6197 and 2.482 | The absorbance, Mean value (C-6; C-6, 1st week (LC50), 0 h): 2.5831 | The absorbance, group - Blank (C-6; C-6, 1st week (LC50), 0 h): 2.0608 | The absorbance (C-6; C-6, 1st week (LC50), 12 h): 2.851 and 2.8475 and 2.6595 | The absorbance, Mean value (C-6; C-6, 1st week (LC50), 12 h): 2.7860 | The absorbance, group - Blank (C-6; C-6, 1st week (LC50), 12 h): 2.2637 | The absorbance (C-6; C-6, 1st week (LC50), 24 h): 2.6263 and 2.6408 and 2.7106 | The absorbance, Mean value (C-6; C-6, 1st week (LC50), 24 h): 2.6592 | The absorbance, group - Blank (C-6; C-6, 1st week (LC50), 24 h): 2.1369 | The absorbance (C-6; C-6, 1st week (LC50), 48 h): 2.5907 and 2.3173 and 2.5122 | The absorbance, Mean value (C-6; C-6, 1st week (LC50), 48 h): 2.4734 | The absorbance, group - Blank (C-6; C-6, 1st week (LC50), 48 h): 1.9511 | The absorbance (C-6; C-6, 1st week (LC50), 4 d): 3.4031 and 2.4181 and 2.3613 | The absorbance, Mean value (C-6; C-6, 1st week (LC50), 4 d): 2.7275 | The absorbance, group - Blank (C-6; C-6, 1st week (LC50), 4 d): 2.2052 | The absorbance (C-6; C-6, 1st week (LC50), 7 d): 2.334 and 2.3441 and 2.3017 | The absorbance, Mean value (C-6; C-6, 1st week (LC50), 7 d): 2.3266 | The absorbance, group - Blank (C-6; C-6, 1st week (LC50), 7 d): 1.8043 | The absorbance (C-6; C-6, 2nd week (recovery), 0 h): 2.7171 and 2.4409 and 2.6926 | The absorbance, Mean value (C-6; C-6, 2nd week (recovery), 0 h): 2.6169 | The absorbance, group - Blank (C-6; C-6, 2nd week (recovery), 0 h): 2.0945 | The absorbance (C-6; C-6, 2nd week (recovery), 24 h): 1.9908 and 2.3106 and 2.2634 | The absorbance, Mean value (C-6; C-6, 2nd week (recovery), 24 h): 2.1883 | The absorbance, group - Blank (C-6; C-6, 2nd week (recovery), 24 h): 1.6659 | The absorbance (C-6; C-6, 2nd week (recovery), 48 h): 3.111 and 2.4572 and 2.7053 | The absorbance, Mean value (C-6; C-6, 2nd week (recovery), 48 h): 2.7578 | The absorbance, group - Blank (C-6; C-6, 2nd week (recovery), 48 h): 2.2355 | The absorbance (C-6; C-6, 2nd week (recovery), 4 d): 2.6888 and 2.7862 and 2.8075 | The absorbance, Mean value (C-6; C-6, 2nd week (recovery), 4 d): 2.7608 | The absorbance, group - Blank (C-6; C-6, 2nd week (recovery), 4 d): 2.2385 | The viability (C-6; C-6, 2nd week (recovery), 4 d): 0.8937 | The absorbance (C-6; C-6, 2nd week (recovery), 7 d): 2.4639 and 2.1497 and 2.4909 | The absorbance, Mean value (C-6; C-6, 2nd week (recovery), 7 d): 2.3682 | The absorbance, group - Blank (C-6; C-6, 2nd week (recovery), 7 d): 1.8458 | The cytotoxicity (C-6; rat, 12 h, 220 nM): 0.1898 | The viability (C-6; rat, 12 h, 220 nM): 0.8102 | The viability (C-6; rat, 4 d, 220 nM): 0.8804 | The absorbance, Mean value (SKBR3; 1st week (LC50), 0 h): 0.3968 | The absorbance, group - Blank (SKBR3; 1st week (LC50), 0 h): 0.2164 | The absorbance (SKBR3; 1st week (LC50), 0 h): 0.4034 and 0.3885 and 0.3985 | The absorbance, Mean value (SKBR3; 1st week (LC50), 12 h): 1.5205 | The absorbance, group - Blank (SKBR3; 1st week (LC50), 12 h): 1.3402 | The absorbance, group - Blank (SKBR3; 1st week (LC50), 24 h): 1.8347 | The absorbance, Mean value (SKBR3; 1st week (LC50), 48 h): 1.6721 | The absorbance, group - Blank (SKBR3; 1st week (LC50), 48 h): 1.4917 | The absorbance (SKBR3; 1st week (LC50), 48 h): 1.6738 and 1.629 and 1.7134 | The absorbance, Mean value (SKBR3; 1st week (LC50), 4 d): 1.1935 | The absorbance (SKBR3; 1st week (LC50), 4 d): 1.2586 and 1.1724 and 1.1494 | The absorbance, Mean value (SKBR3; 1st week (LC50), 7 d): 1.0281 | The absorbance, group - Blank (SKBR3; 1st week (LC50), 7 d): 0.8478 | The absorbance (SKBR3; 1st week (LC50), 7 d): 0.9379 and 0.9708 and 1.1757 | The absorbance, Mean value (SKBR3; 2nd week (recovery), 0 h): 1.0435 | The absorbance, group - Blank (SKBR3; 2nd week (recovery), 0 h): 0.8631 | The absorbance (SKBR3; 2nd week (recovery), 0 h): 1.0568 and 1.0836 and 0.99 | The absorbance, Mean value (SKBR3; 2nd week (recovery), 24 h): 1.1704 | The absorbance, group - Blank (SKBR3; 2nd week (recovery), 24 h): 0.9900 | The absorbance (SKBR3; 2nd week (recovery), 24 h): 1.1654 and 1.3673 and 0.9784 | The absorbance, Mean value (SKBR3; 2nd week (recovery), 48 h): 1.0440 | The absorbance, group - Blank (SKBR3; 2nd week (recovery), 48 h): 0.8636 | The absorbance (SKBR3; 2nd week (recovery), 48 h): 0.9057 and 0.8251 and 1.4012 | The absorbance, Mean value (SKBR3; 2nd week (recovery), 4 d): 1.2517 | The absorbance, group - Blank (SKBR3; 2nd week (recovery), 4 d): 1.0713 | The absorbance (SKBR3; 2nd week (recovery), 4 d): 1.252 and 1.6151 and 0.888 | The absorbance, Mean value (SKBR3; 2nd week (recovery), 7 d): 0.9393 | The absorbance, group - Blank (SKBR3; 2nd week (recovery), 7 d): 0.7590 | The absorbance (SKBR3; 2nd week (recovery), 7 d): 0.7048 and 1.1412 and 0.972 | The cytotoxicity (SKBR3; human, 0 h, 220 nM): −1.4298 | The viability (SKBR3; human, 12 h, 220 nM): 0.7165 | The cytotoxicity (SKBR3; human, 24 h, 220 nM): 0.4771 | The cytotoxicity (SKBR3; human, 48 h, 220 nM): 0.6010 | The cytotoxicity (HT 1299; 0 h): 0.0206 | The viability (HT 1299; 0 h): 0.9794 | The cytotoxicity (HT 1299; 12 h): 0.0709 | The viability (HT 1299; 12 h): 0.9291 | The cytotoxicity (HT 1299; 24 h): 0.0409 | The viability (HT 1299; 24 h): 0.9591 | The cytotoxicity (HT 1299; 48 h): 0.0368 | The viability (HT 1299; 48 h): 0.9632 | The viability (HT 1299; 4 d): 0.8406 | The viability (HT 1299; 7 d): 0.3389 | The absorbance (HT 1299; 1st week (LC50), 0 h): 2.7643 and 2.716 and 2.6703 | The absorbance, Mean value (HT 1299; 1st week (LC50), 0 h): 2.7169 | The absorbance, group - Blank (HT 1299; 1st week (LC50), 0 h): 2.5063 | The absorbance (HT 1299; 1st week (LC50), 12 h): 2.8939 and 2.8933 and 2.8787 | The absorbance, Mean value (HT 1299; 1st week (LC50), 12 h): 2.8886 | The absorbance, group - Blank (HT 1299; 1st week (LC50), 12 h): 2.6781 | The absorbance (HT 1299; 1st week (LC50), 24 h): 2.7759 and 2.8539 and 2.8128 | The absorbance, Mean value (HT 1299; 1st week (LC50), 24 h): 2.8142 | The absorbance, group - Blank (HT 1299; 1st week (LC50), 24 h): 2.6036 | The absorbance (HT 1299; 1st week (LC50), 48 h): 2.5408 and 2.6225 and 2.6333 | The absorbance, Mean value (HT 1299; 1st week (LC50), 48 h): 2.5989 | The absorbance, group - Blank (HT 1299; 1st week (LC50), 48 h): 2.3883 | The absorbance (HT 1299; 1st week (LC50), 4 d): 2.817 and 2.6791 and 2.5786 | The absorbance, Mean value (HT 1299; 1st week (LC50), 4 d): 2.6916 | The absorbance, group - Blank (HT 1299; 1st week (LC50), 4 d): 2.4810 | The absorbance (HT 1299; 1st week (LC50), 7 d): 1.504 | The absorbance, group - Blank (HT 1299; 1st week (LC50), 7 d): 1.0771 | The absorbance, Mean value (HT 1299; [1]): 2.0676 | The absorbance, group - Blank (HT 1299; [1]): 1.7954 | The absorbance (HT 1299; XTT 500 nm, 2nd week (recovery), 0 h, single wells): 1.9675 and 1.8392 and 2.3962 | The absorbance, Mean value (HT 1299; [2]): 2.6177 | The absorbance, group - Blank (HT 1299; [2]): 2.3455 | The absorbance (HT 1299; XTT 500 nm, 2nd week (recovery), 24 h, single wells): 2.6918 and 2.5521 and 2.6093 | The absorbance, Mean value (HT 1299; [3]): 2.4695 | The absorbance, group - Blank (HT 1299; [3]): 2.1973 | The absorbance, Mean value (HT 1299; [4]): 2.3404 | The absorbance, group - Blank (HT 1299; [4]): 2.0681 | The absorbance (HT 1299; XTT 500 nm, 2nd week (recovery), 4 d, single wells): 2.6902 and 1.9256 and 2.4054 | The cytotoxicity (HT 1299; human, 0 h): 0.2984 | The viability (HT 1299; human, 0 h): 0.7016 | The cytotoxicity (HT 1299; human, 24 h): 0.1360 | The viability (HT 1299; human, 24 h): 0.8640 | The cytotoxicity (HT 1299; human, 48 h): 0.1139 | The viability (HT 1299; human, 48 h): 0.8861 | The viability (HT 1299; human, 4 d): 0.7007 | The cytotoxicity (HT 1299; human, 7 d): 0.6611

From US20120016019A1, “PHARMACEUTICAL COMPOSITION FOR TREATING OR PREVENTING CANCER” (priority 2010, published 2012)
